{
  "source": "ChEMBL document CHEMBL5543113",
  "about": "“Amphiphilic α-Peptoid-deoxynojirimycin Conjugate-based Multivalent Glycosidase Inhibitor for Hypoglycemic Effect and Fluorescence Imaging” (J Med Chem, 2024)",
  "key": {"[1]": {"system": "Mus musculus", "assay": "Hypoglycemic activity in KKAy diabetic mouse model assessed as decrease in PBG level at 1.6 mg/kg, po co-administered with maltose and measured after 30 mins by glucometer relative to control", "assay_type": "functional", "set-up": "scale not given: the % may be the effect or the level left", "details": "0.5 h"}, "[2]": {"assay": "Stability of compound in simulated intestinal fluid at 2 x 10^-4 M administered as Nile red complex by fluorescence spectra analysis", "assay_type": "ADME", "details": "simulated gi fluid, 200 µM; dose 2 10^-4M"}, "[3]": {"system": "Mus musculus", "assay": "Hypoglycemic activity in KKAy diabetic mouse model assessed as blood glucose level at 1.6 mg/kg, po co-administered with maltose and measured after 60 mins by glucometer (reference value: 582.6 +/- 22.9 mg/dl)", "assay_type": "functional", "details": "1 h"}, "[4]": {"molecular_target": "Alpha-glucosidase (Saccharomyces cerevisiae S288c) (UniProt P53341+P38158+P07265)", "assay": "Inhibition of Saccharomyces cerevisiae Alpha-glucosidase at 1 mM incubated for 10 mins by absorbance based microplate spectrophotometric analysis", "assay_type": "protein assay"}, "[5]": {"system": "Mus musculus", "assay": "Hypoglycemic activity in C57BL/6J mouse assessed as molar reduction in PBG level at 1.6 mg/kg, po co-administered with maltose and measured after 30 mins by glucometer relative to control", "assay_type": "functional", "set-up": "scale not given: the % may be the effect or the level left", "details": "0.5 h"}, "[6]": {"assay": "Toxicity in C57BL/6J mouse assessed as effect on kidney morphology at 1.6 mg/kg, po co-administered with maltose for 7 days by Hematoxylin and eosin staining based analysis", "assay_type": "organism-based", "details": "in vivo, 168 h, time 7 day"}, "[7]": {"assay": "Drug uptake in C57/6J mouse spleen assessed as increase in fluorescence at 5 x 10^-5M, po administered as Nile red complex and measured after 4 hrs by fluorescence imaging analysis", "assay_type": "ADME, organism-based", "details": "in vivo, dose 5 10^-5M"}, "[8]": {"assay": "Self assembly property of the compound assessed as diameter at 2.5 x 10^-5 mol/L by dynamic light scattering spectrometric analysis", "assay_type": "physicochemical", "details": "25 µM; dose 2.5 10^-5mol/L"}, "[9]": {"system": "Mus musculus", "assay": "Binding affinity to mouse alpha-glucosidase assessed as fluorescence intensity at 2 x 10^-4 M administered as Nile red complex by fluorescence spectra analysis (reference value: 3586)", "details": "dose 2.0 10^-4M"}, "[10]": {"system": "Mus musculus", "assay": "Hypoglycemic activity in KKAy diabetic mouse model assessed as decrease in PBG level at 1.6 mg/kg, po co-administered with maltose and measured after 15 mins by glucometer relative to control", "assay_type": "functional", "set-up": "scale not given: the % may be the effect or the level left", "details": "0.25 h"}, "[11]": {"system": "Mus musculus", "assay": "Hypoglycemic activity in KKAy diabetic mouse model assessed as blood glucose level at 1.6 mg/kg, po co-administered with maltose and measured after 15 mins by glucometer (reference value: 582.6 +/- 22.9 mg/dl)", "assay_type": "functional", "details": "0.25 h"}, "[12]": {"assay": "Self assembly property of the compound assessed as diameter at 5 x 10^-5 mol/L by dynamic light scattering spectrometric analysis", "assay_type": "physicochemical", "details": "50 µM; dose 5 10^-5mol/L"}, "[13]": {"system": "Mus musculus", "assay": "Hypoglycemic activity in C57BL/6J mouse assessed as decrease in PBG level at 0.4 mg/kg, po co-administered with maltose and measured after 30 mins by glucometer relative to control", "assay_type": "functional", "set-up": "scale not given: the % may be the effect or the level left", "details": "0.5 h"}, "[14]": {"assay": "Drug uptake in C57/6J mouse heart assessed as increase in fluorescence at 5 x 10^-5M, po administered as Nile red complex and measured after 4 hrs by fluorescence imaging analysis", "assay_type": "ADME, organism-based", "details": "in vivo, dose 5 10^-5M"}, "[15]": {"assay": "Drug uptake in C57/6J mouse kidney assessed as increase in fluorescence at 5 x 10^-5M, po administered as Nile red complex and measured after 4 hrs by fluorescence imaging analysis", "assay_type": "ADME, organism-based", "details": "in vivo, dose 5 10^-5M"}, "[16]": {"system": "Mus musculus", "assay": "Hypoglycemic activity in KKAy diabetic mouse model assessed as blood glucose level at 1.6 mg/kg, po co-administered with maltose and measured after 30 mins by glucometer (reference value: 582.6 +/- 22.9 mg/dl)", "assay_type": "functional", "details": "0.5 h"}, "[17]": {"assay": "Self assembly property of the compound in water assessed as diameter at 1 x 10^-4 M by transmission electron microscopic analysis", "assay_type": "physicochemical", "details": "buffer, 100 µM; dose 1 10^-4M"}, "[18]": {"system": "Mus musculus", "assay": "Hypoglycemic activity in C57BL/6J mouse assessed as blood glucose level at 1.6 mg/kg, po co-administered with maltose and measured after 15 mins by glucometer (380.8 +/- 20.6 mg/dL)", "assay_type": "functional", "details": "0.25 h"}, "[19]": {"system": "Mus musculus", "assay": "Hypoglycemic activity in C57BL/6J mouse assessed as blood glucose level at 0.8 mg/kg, po co-administered with maltose and measured after 15 mins by glucometer (380.8 +/- 20.6 mg/dl)", "assay_type": "functional", "details": "0.25 h"}, "[20]": {"system": "Mus musculus", "assay": "Hypoglycemic activity in C57BL/6J mouse assessed as decrease in PBG level at 1.6 mg/kg, po co-administered with maltose and measured after 30 mins by glucometer relative to control", "assay_type": "functional", "set-up": "scale not given: the % may be the effect or the level left", "details": "0.5 h"}, "[21]": {"system": "Mus musculus", "assay": "Binding affinity to mouse alpha-glucosidase assessed as decrease in fluorescence intensity at 200 uM administered as Nile red complex in presence of miglitol by fluorescence spectra analysis"}, "[22]": {"assay": "Self assembly property of the compound assessed as diameter at 7.5 x 10^-5 mol/L by dynamic light scattering spectrometric analysis", "assay_type": "physicochemical", "details": "75 µM; dose 7.5 10^-5mol/L"}, "[23]": {"assay": "Self assembly property of the compound assessed as diameter at 1 x 10^-5 mol/L by dynamic light scattering spectrometric analysis", "assay_type": "physicochemical", "details": "10 µM; dose 1 10^-5mol/L"}, "[24]": {"system": "Mus musculus", "assay": "Relative hypoglycemic rate in C57BL/6J mouse assessed as molar reduction in PBG level by measuring fold change at 1.6 mg/kg, po co-administered with maltose and measured after 30 mins by glucometer relative to miglitol", "assay_type": "functional", "details": "0.5 h"}, "[25]": {"assay": "Toxicity in C57BL/6J mouse assessed as effect on liver morphology at 1.6 mg/kg, po co-administered with maltose for 7 days by Hematoxylin and eosin staining based analysis", "assay_type": "organism-based", "details": "in vivo, 168 h, time 7 day"}, "[26]": {"system": "Aspergillus niger", "assay": "Potency index, ratio of miglitol Ki to test compound Ki for inhibition of Aspergillus niger Alpha-glucosidase incubated for 10 mins by Lineweaver-Burk plot analysis"}, "[27]": {"assay": "Self assembly property of compound assessed as Nilered-compound complex formation by measuring increase in fluorescence intensity by Nile red dye based fluorescence analysis", "assay_type": "physicochemical"}, "[28]": {"system": "Mus musculus", "assay": "Hypoglycemic activity in KKAy diabetic mouse model assessed as blood glucose level at 1.6 mg/kg, po co-administered with maltose and measured after 120 mins by glucometer (reference value: 582.6 +/- 22.9 mg/dl)", "assay_type": "functional", "details": "2 h"}, "[29]": {"assay": "Self assembly property of the compound assessed as diameter at 1 x 10^-4 mol/L by dynamic light scattering spectrometric analysis", "assay_type": "physicochemical", "details": "100 µM; dose 1 10^-4mol/L"}, "[30]": {"assay": "Inhibition of Aspergillus niger Alpha-glucosidase incubated for 10 mins by Lineweaver-Burk plot analysis"}, "[31]": {"system": "Mus musculus", "assay": "Hypoglycemic activity in C57BL/6J mouse assessed as blood glucose level at 0.8 mg/kg, po co-administered with maltose and measured after 30 mins by glucometer (380.8 +/- 20.6 mg/dL)", "assay_type": "functional", "details": "0.5 h"}, "[32]": {"system": "Mus musculus", "assay": "Hypoglycemic activity in C57BL/6J mouse assessed as reduction in PBG level measured per DNJ unit at 0.4 mg/kg, po co-administered with maltose and measured at 15 to 30 mins by glucometer relative to control", "assay_type": "functional", "set-up": "scale not given: the % may be the effect or the level left", "details": "time 15-30 min"}, "[33]": {"assay": "Binding affinity to mouse alpha-glucosidase assessed as miglitol binding constant at 200 uM administered as Nile red complex in presence of miglitol by fluorescence spectra analysis"}},
  "note": "Active and inactive are the calls of the source. No cut-off for these calls is given here.",
  "data": [
    {"smiles": "CCCCCCCCCCCCCCCCCCNC(=O)CN(Cc1cn(CCCCCCN2C[C@H](O)[C@@H](O)[C@H](O)[C@H]2CO)nn1)C(=O)CN(Cc1cn(CCCCCCN2C[C@H](O)[C@@H](O)[C@H](O)[C@H]2CO)nn1)C(=O)CN(Cc1cn(CCCCCCN2C[C@H](O)[C@@H](O)[C@H](O)[C@H]2CO)nn1)C(=O)CN(Cc1cn(CCCCCCN2C[C@H](O)[C@@H](O)[C@H](O)[C@H]2CO)nn1)C(C)=O", "values": [
      {"measurement": "Activity", "setting": "[1]", "result": 26.2, "unit": "%"},
      {"measurement": "Stability", "setting": "[2]", "result": "Stable"},
      {"measurement": "Activity", "setting": "[3]", "result": 432.6, "unit": "mg/dL"},
      {"measurement": "inhibition", "setting": "[4]", "result": "inactive"},
      {"measurement": "Activity", "setting": "[5]", "result": 11.5, "unit": "%"},
      {"measurement": "Activity", "setting": "[6]", "result": "Non-Toxic"},
      {"measurement": "Drug uptake", "setting": "[7]", "result": "Not Active"},
      {"measurement": "Activity", "setting": "[8]", "result": 195, "unit": "nm"},
      {"measurement": "Flu intensity", "setting": "[9]", "result": 1750},
      {"measurement": "Activity", "setting": "[10]", "result": 6.6, "unit": "%"},
      {"measurement": "Activity", "setting": "[11]", "result": 327.6, "unit": "mg/dL"},
      {"measurement": "Activity", "setting": "[12]", "result": 233, "unit": "nm"},
      {"measurement": "Activity", "setting": "[13]", "result": 18.6, "unit": "%"},
      {"measurement": "Drug uptake", "setting": "[14]", "result": "Not Active"},
      {"measurement": "Drug uptake", "setting": "[15]", "result": "Not Active"},
      {"measurement": "Activity", "setting": "[16]", "result": 419.7, "unit": "mg/dL"},
      {"measurement": "Activity", "setting": "[17]", "result": 96, "unit": "nm"},
      {"measurement": "Activity", "setting": "[18]", "result": 302.04, "unit": "mg/dL"},
      {"measurement": "Activity", "setting": "[19]", "result": 326.5, "unit": "mg/dL"},
      {"measurement": "Activity", "setting": "[20]", "result": 39.5, "unit": "%"},
      {"measurement": "Activity", "setting": "[21]", "result": "inactive"},
      {"measurement": "Activity", "setting": "[22]", "result": 243, "unit": "nm"},
      {"measurement": "Activity", "setting": "[23]", "result": 179, "unit": "nm"},
      {"measurement": "fold change (FC)", "setting": "[24]", "result": 4},
      {"measurement": "Activity", "setting": "[25]", "result": "Non-Toxic"},
      {"measurement": "Ratio Ki", "setting": "[26]", "result": 121},
      {"measurement": "Activity", "setting": "[27]", "result": "Dose-Dependent Effect"},
      {"measurement": "Activity", "setting": "[28]", "result": 351, "unit": "mg/dL"},
      {"measurement": "Activity", "setting": "[29]", "result": 276, "unit": "nm"},
      {"measurement": "Ki", "setting": "[30]", "result": 170, "unit": "nM"},
      {"measurement": "Activity", "setting": "[31]", "result": 287.6, "unit": "mg/dL"},
      {"measurement": "Activity", "setting": "[32]", "result": 22.2, "unit": "%"},
      {"measurement": "Ka", "setting": "[33]", "result": 205, "unit": "M⁻¹"}
    ]}
  ]
}
